# Reference: patent US20250346592A1 (Celgene Corporation, priority 2022, published 2025)
# Target: T1, hPAD4 enzyme (Homo sapiens (Human), UniProt Q9UM07)
# Assay: RFMS2 assay (RapidFire mass spectrometry, TSTGGRQGSHH peptide substrate)
# Format: biochemical
# Details: 35 nM recombinant human PAD4, 500 μM TSTGGRQGSHH peptide, 30 minutes at room temperature; read-out: RFMS 2 IC50
# Procedure, shortened: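 IC50 derived from RapidFire LC-MS/MS (positive ESI MRM) of substrate versus product after a 30 min room-temperature reaction stopped with 10% formic acid. Reaction contained 35 nM human PAD4, 500 μM peptide, 2 mM CaCl2, 5 mM DTT at pH 7.4, and compounds diluted 3-fold from 20 μM.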
# T1 sequence (Q9UM07 whole entry): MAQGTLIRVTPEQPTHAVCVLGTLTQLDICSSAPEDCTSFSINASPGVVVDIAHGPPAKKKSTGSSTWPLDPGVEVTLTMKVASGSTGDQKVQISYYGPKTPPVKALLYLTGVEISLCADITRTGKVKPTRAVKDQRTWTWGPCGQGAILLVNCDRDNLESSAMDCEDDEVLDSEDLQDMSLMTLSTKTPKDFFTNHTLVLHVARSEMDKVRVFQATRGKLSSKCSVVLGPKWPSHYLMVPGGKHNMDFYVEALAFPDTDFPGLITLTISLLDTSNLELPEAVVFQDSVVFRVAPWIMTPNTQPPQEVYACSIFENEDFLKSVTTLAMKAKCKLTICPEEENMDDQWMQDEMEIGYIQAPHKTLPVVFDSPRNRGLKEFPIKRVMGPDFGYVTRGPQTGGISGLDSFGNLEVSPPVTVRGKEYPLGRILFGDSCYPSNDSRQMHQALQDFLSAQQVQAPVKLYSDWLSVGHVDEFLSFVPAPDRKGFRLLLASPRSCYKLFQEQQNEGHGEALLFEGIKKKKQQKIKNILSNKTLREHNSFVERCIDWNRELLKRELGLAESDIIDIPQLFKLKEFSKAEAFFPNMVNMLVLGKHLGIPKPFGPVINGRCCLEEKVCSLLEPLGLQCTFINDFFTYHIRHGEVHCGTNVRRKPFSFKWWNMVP
row,IC50 [nM],SMILES
1,501 to 1000,"COc1ccc2cc(-c3nc4cc5c(c(F)c4n3C)CCN(C[C@H](N)CF)C5=O)n(CC3CC3)c2c1 [Example 239, (S)-6-(2-amino-3-fluoropropyl)-2-(1-(cyclopropylmethyl)-6-methoxy-1H-indol-2-yl)-9-fluoro-1-methyl-1,6,7,8-tetrahydro-5H-imidazo[4,5-g]isoquinolin-5-one]"

# Target: T1, hPAD4 enzyme
# Assay: RFMS1 assay (RapidFire mass spectrometry, BAEE substrate)
# Format: biochemical
# Details: 5 nM hPAD4, 250 μM BAEE, 30 min preincubation at 37° C., 90 min reaction; read-out: RFMS 1 IC50
# Procedure: Compounds were solubilized in 100% DMSO to achieve a 10 mM compound concentration. Compound stock solutions were stored at RT. A series of dilutions were prepared in DMSO and mixed 8 times with 20 μL mixing volume. Final top concentration of compound in the assay is 50 μM. Final assay conditions were as follows: • Reaction volume: 26 μl • Assay buffer: 25 mM hepes, pH 7.5, 5 mM NaCl, 1 mM DTT, 0.2 mg/ml BSA, 0.01% CHAPS, 50 µM Calcium, and 5 μM TPEN • Final concentrations: 5 nM hPAD4 enzyme, 250 µM BAEE, and 0.5% DMSO • Total incubation time: 30 mins compound and enzyme preincubation at 37° C., 90 min enzyme/substrate reaction, 30 min reaction with phenyl glyoxal at 37° C. • Stop solution: 40 μl 5% TCA in ACN • 0.13 μL of compound solution was added to 13 μL of 10 nM PAD4 in assay buffer. After […] min 13 μl of 500 µM of BAEE was added in 25 mM hepes, pH 7.5, 5 mM NaCl, 1 mM DTT, 0.2 mg/ml BSA, 0.01% CHAPS, 50 μM Calcium, 5 μM TPEN was added and the reaction incubated for 90 min at 37° C. The enzymatic reaction was quenched by addition of 15 μl of 6.1N TCA, 100% Final Concentration is 20%, 35 μl of 8.5 mM phenyl glyoxal (final concentration 4 mM) is then added and the reaction is incubated for 30 min at 37° C.
# After 30 minutes the plates are spun down to remove all precipitate. The enzyme reaction was quenched with an equal volume of methanol containing internal standard (modified citrulline). Samples were loaded onto the Rapid Fire RF300 system (Agilent) wherein they were first sipped for 1000 ms and then directly loaded to a C18 separations cartridge using a mixture of acetonitrile containing 0.01% formic acid for 3000 ms desalting. The flow rate of the mobile phase was 1.5 ml/min. Once the samples were eluted from the cartridge, a mobile phase of acetonitrile containing 0.01% formic acid was used to move the samples into the mass spectrometer for 4000 ms at a flow rate of 1.25 ml/min/Sciex API5500 triple quadrupole mass spectrometer (Applied Biosystems) equipped with ESI was used to analyze the peptidyl citrulline and internal standard ions.
# MRM transition of product and internal standard were monitored at m/z 424.5 to 350.4 and m/z 293 to 247 respectively. The dwell time for each transition was set at 200 ms, and the ESI voltage was used at 5500 with a source temperature of 400° C. Extracted ion peaks for each transition were integrated using the Rapid Fire Integrator software. Peak area of analyte was normalized with internal standard.).
# Compounds having an activity designated as “A” provided an IC50≤10 nM; compounds having an activity designated as “B” provided an IC50 11-100 nM; compounds having an activity designated as “C” provided an IC50 101-500 nM; compounds having an activity designated as “D” provided an IC50 501-1000 nM; compounds having an activity designated as “E” provided an IC50>1000 nM.
row,IC50 [nM],SMILES
1,≤ 10,"Cn1c(-c2cc3cccc(OC(F)Cn4ccnc4)c3n2CC2CC2)nc2cc3c(cc21)CCN(C[C@H](N)CF)C3=O (single isomer, unassigned) [Example 226a]"
2,11 to 100,"Cc1cc(N2CCCS2(=O)=O)ccc1-c1ccc2cc(-c3nc4cc5c(cc4n3C)CCN(C[C@H](N)CF)C5=O)n(CC3CC3)c2n1 [Example 57, (S)-6-(2-amino-3-fluoropropyl)-2-(1-(cyclopropylmethyl)-6-(4-(1,1-dioxidoisothiazolidin-2-yl)-2-methylphenyl)-1H-pyrrolo[2,3-b]pyridin-2-yl)-1-methyl-1,6,7,8-tetrahydro-5H-imidazo[4,5-g]isoquinolin-5-one]"
3,11 to 100,"Cc1cc(N2CC(C)(C)OC2=O)ccc1-c1ccc2cc(-c3nc4cc5c(cc4n3C)CCN(C[C@H](N)CF)C5=O)n(CC3CC3)c2n1 [Example 58, (S)-3-(4-(2-(6-(2-amino-3-fluoropropyl)-1-methyl-5-oxo-5,6,7,8-tetrahydro-1H-imidazo[4,5-g]isoquinolin-2-yl)-1-(cyclopropylmethyl)-1H-pyrrolo[2,3-b]pyridin-6-yl)-3-methylphenyl)-5,5-dimethyloxazolidin-2-one]"
4,11 to 100,"CCc1nc(N2CCOC2=O)ccc1-c1ccc2cc(-c3nc4cc5c(cc4n3C)CCN(C[C@H](N)CF)C5=O)n(CC3CC3)c2n1 [Example 61, (S)-3-(5-(2-(6-(2-amino-3-fluoropropyl)-1-methyl-5-oxo-5,6,7,8-tetrahydro-1H-imidazo[4,5-g]isoquinolin-2-yl)-1-(cyclopropylmethyl)-1H-pyrrolo[2,3-b]pyridin-6-yl)-6-ethylpyridin-2-yl)oxazolidin-2-one]"
5,11 to 100,"COc1cccc2cc(-c3nc4cc5c(cc4n3C)CCN(C[C@H](N)CF)C5=O)n(CCOC(F)F)c12 [Example 135, (S)-6-(2-amino-3-fluoropropyl)-2-(1-(2-(difluoromethoxy)ethyl)-7-methoxy-1H-indol-2-yl)-1-methyl-1,6,7,8-tetrahydro-5H-imidazo[4,5-g]isoquinolin-5-one]"
6,≤ 10,"C[C@H](COc1cccc2cc(-c3nc4cc5c(cc4n3C)CCN(C[C@H](N)CF)C5=O)n(CC3CC3)c12)n1cnc(F)c1 [Example 217, 6-((S)-2-amino-3-fluoropropyl)-2-(1-(cyclopropylmethyl)-7-((R)-2-(4-fluoro-1H-imidazol-1-yl)propoxy)-1H-indol-2-yl)-1-methyl-1,6,7,8-tetrahydro-5H-imidazo[4,5-g]isoquinolin-5-one]"
7,≤ 10,"C[C@H](COc1cccc2cc(-c3nc4cc5c(cc4n3C)CCN(C[C@@H](C)N)C5=O)n(CC3CC3)c12)n1cnc(F)c1 [Example 230, 6-((R)-2-aminopropyl)-2-(1-(cyclopropylmethyl)-7-((R)-2-(4-fluoro-1H-imidazol-1-yl)propoxy)-1H-indol-2-yl)-1-methyl-1,6,7,8-tetrahydro-5H-imidazo[4,5-g]isoquinolin-5-one]"
8,101 to 500,"COc1cccc2cc(-c3nc4cc5c(cc4n3C)CCN(C[C@H]3COCCN3)C5=O)n(CCOC(F)F)c12 [Example 233, (S)-2-(1-(2-(difluoromethoxy)ethyl)-7-methoxy-1H-indol-2-yl)-1-methyl-6-(morpholin-3-ylmethyl)-1,6,7,8-tetrahydro-5H-imidazo[4,5-g]isoquinolin-5-one]"
9,≤ 10,"C[C@H](COc1cccc2cc(-c3nc4cc5c(cc4n3C)CCN(C[C@H]3COCCN3)C5=O)n(CC3CC3)c12)n1cnc(F)c1 [Example 235, 2-(1-(cyclopropylmethyl)-7-((R)-2-(4-fluoro-1H-imidazol-1-yl)propoxy)-1H-indol-2-yl)-1-methyl-6-(((S)-morpholin-3-yl)methyl)-1,6,7,8-tetrahydro-5H-imidazo[4,5-g]isoquinolin-5-one]"
